Source: BindingDB's records for doi:10.1021/cc0600021 (Darmstadt Technical University, 2006)

Target: Beta-secretase 1 (Homo sapiens, UniProt P56817)
Assay: Fluorescence Resonance Energy Transfer (FRET) Assay
Details: 20 °C
Protocol: The FRET assay was performed at 20 C on a FLUOstar (BMG Lab Technologies, D-77656 Offenburg) using 96-well microtiter plates (Dynex Microfluor 2, Chantilly, VA).

Beta-secretase 1, sequence (P56817 whole entry): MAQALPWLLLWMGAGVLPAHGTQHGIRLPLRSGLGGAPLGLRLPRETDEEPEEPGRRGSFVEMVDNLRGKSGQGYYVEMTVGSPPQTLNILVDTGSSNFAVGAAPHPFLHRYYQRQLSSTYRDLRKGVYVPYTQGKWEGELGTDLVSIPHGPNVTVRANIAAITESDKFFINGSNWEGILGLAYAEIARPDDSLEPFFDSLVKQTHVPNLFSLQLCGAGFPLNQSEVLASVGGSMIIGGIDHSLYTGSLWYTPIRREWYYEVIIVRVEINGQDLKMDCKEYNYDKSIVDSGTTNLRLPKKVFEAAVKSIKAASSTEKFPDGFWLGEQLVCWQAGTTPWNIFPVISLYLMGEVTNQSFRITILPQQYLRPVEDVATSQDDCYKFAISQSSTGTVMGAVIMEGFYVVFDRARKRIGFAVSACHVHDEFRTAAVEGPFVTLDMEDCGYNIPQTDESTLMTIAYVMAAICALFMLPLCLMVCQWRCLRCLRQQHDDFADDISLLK

`O=C1CN(Cc2cccc(C(F)(F)F)c2)C(=O)C1Sc1ccccc1` (configuration not stated) [N-Substituted tetramic acid, 89] and `O=C1CN(Cc2ccccc2)C(=O)C1SCc1cccc(C(F)(F)F)c1` (configuration not stated) [N-Substituted tetramic acid, 92] cannot be ordered by IC50: > 200 µM for the first, 212 µM for the second.

Going from `COc1ccc(CN2CC(=O)C(Sc3ccccc3)C2=O)cc1` (configuration not stated) [N-Substituted tetramic acid, 91] to `O=C1OC(c2ccccc2)C(=O)C1Sc1ccccc1` (configuration not stated) [Tetramic acid, 72], the IC50 falls from > 200 µM to 105 µM. The second is the more potent here.

Compared with `CC(C)CC1NC(=O)C(SCc2cccc(C(F)(F)F)c2)C1=O` (configuration not stated) [Tetramic acid, 25], `CCC(C)C1NC(=O)C(SCc2cccc(C(F)(F)F)c2)C1=O` (configuration not stated) [Tetramic acid, 38] is 3.2-fold lower in IC50: 194 µM for the first, 60 µM for the second. The second is the more potent here.

Compared with `CC(C)CC1NC(=O)C(SCC(=O)NCc2ccc3c(c2)OCO3)C1=O` (configuration not stated) [Tetramic acid, 30], `CCC(C)C1NC(=O)C(SCC(=O)NCc2ccc3c(c2)OCO3)C1=O` (configuration not stated) [Tetramic acid, 44] is higher in IC50: 200 µM for the first, > 200 µM for the second. The first is the more potent here.

`CCC(C)C1NC(=O)C(SCc2ccco2)C1=O` (configuration not stated) [Tetramic acid, 43] and `O=C1NC(Cc2ccccc2)C(=O)C1SCc1ccco1` (configuration not stated) [Tetramic acid, 56] are within 1.5-fold of each other in IC50: 200 µM for the first, 145 µM for the second.

`O=C1OC(c2ccccc2)C(=O)C1SCCc1ccccc1` (configuration not stated) [Tetramic acid, 74] and `O=C1OC(CCc2ccccc2)C(=O)C1SCc1cccc(C(F)(F)F)c1` (configuration not stated) [Tetramic acid, 77] cannot be ordered by IC50: > 200 µM for the first, > 200 µM for the second.
